{"source": "patent US20170274026A1", "about": "“METHOD OF MAKING TRITERPENOIDS FROM PETRI DISH CULTUREDANTRODIA CINNAMOMEA” (Ultra-Microrigin Biomedical Technology Co., Ltd., priority 2016, published 2017)", "origin": "cited, not measured here", "tested_on": "cancer cells", "details": "Toxicology in Vitro and International Journal of Gerontology"}
{"smiles": "C=C(CC[C@@H](C(=O)O)[C@H]1C[C@H](O)[C@@]2(C)C3=CC[C@H]4C(C)(C)[C@@H](O)CC[C@]4(C)C3=CC[C@]12C)C(C)C", "note": "[MMH01, dehydrosulphurenic acid]", "values": [{"measurement": "anti-tumor effect and repressing the growth of cancer cells", "value": "effective in anti-tumor and repressing the growth of cancer cells"}]}
